Measurements as given in US10059741B2 (priority 2015, dated 2018).
Read-outs that look alike come from different tables or passages of the source. Bridge positions count the residues as written; N and C are the ends. Square brackets hold non-standard residues; d marks the D form. Peptide text beside a SMILES is read from it. R8 = C=CCCCCCC[C@@](C)(N)C(=O)O; S5 = C=CCCC[C@](C)(N)C(=O)O; Nle = CCCC[C@H](N)C(=O)O; Aib = CC(C)(N)C(=O)O

What was measured:
[1] = tested on: H7N9 A/Anhui/1/2013; experiment: microbe, parasite or virus in culture; assay type: cell-based, influenza A virus; conditions: read-out: EC50
[2] = tested on: H5N1 A/Hong Kong/213/2003; experiment: microbe, parasite or virus in culture; assay type: cell-based, influenza A virus; conditions: read-out: EC50
[3] = tested on: H1N1 California/07/2009; experiment: microbe, parasite or virus in culture; assay type: cell-based, influenza A virus
[4] = tested on: H1N1 A/Solomon Island/03/2006; assay type: cell-based, influenza A virus; conditions: Influenza A H1N1 A/Solomon Is./3/2006-M; Drug Assay Neutral Red; read-out: EC50
[5] = tested on: influenza virus, various viral strains; experiment: organism not typed; assay type: cell-based; conditions: read-out: EC50
[6] = tested on: influenza virus, various viral strains; assay type: cell-based; conditions: VYR/Neutral Red
[7] = tested on: H1N1 California/07/2009; experiment: microbe, parasite or virus in culture; assay type: cell-based, influenza A virus; conditions: for EC90: Drug Assay Visual/Neutral Red
[8] = tested on: H3N2 Perth/16/2009; experiment: microbe, parasite or virus in culture; assay type: cell-based, influenza A virus; conditions: for EC90: Drug Assay Visual/Neutral Red
[9] = tested on: H3N2 Perth/16/2009; experiment: microbe, parasite or virus in culture; assay type: cell-based, influenza A virus
[10] = in vitro; conditions: dog
[11] = Cytopathic effect/toxicity (Visual), MDCK cells, read-out: EC50 (μM) H1N1 California/07/2009
[12] = Influenza A H1N1 A/Solomon Is./3/2006-M, Drug Assay Visual
[13] = Cytopathic effect/toxicity (Neutral red), MDCK cells, read-out: EC50 (μM) H1N1 California/07/2009
[14] = Influenza A H1N1 California/07/20/09 (so in the source), later run, Drug Assay Neutral Red, read-out: EC50
[15] = Influenza A H1N1 California/07/20/09 (so in the source)
[16] = Influenza A H1N1 California/07/2009, Drug Assay Neutral Red, read-out: EC50
[17] = Cytopathic effect/toxicity (Neutral red), MDCK cells, read-out: EC50 (μM) H3N2 Perth/16/2009
[18] = Influenza A H3N2 Perth/16/2006 (so in the source), Drug Assay Neutral Red, read-out: EC50
[19] = Influenza A H3N2 Perth/16/2009, last run, Drug Assay Neutral Red, read-out: EC50
[20] = Cytopathic effect/toxicity (Visual), MDCK cells, read-out: EC50 (μM) H3N2 Perth/16/2009
[21] = Influenza A H3N2 Perth/16/2006 (so in the source), Drug Assay Visual, read-out: EC50
[22] = CC50 (μM) H1N1 California/07/2009, Cell cytotoxicity (CC), run with H1N1 California/07/2009
[23] = CC50 (μM) H3N2 Perth/16/2009, Cell cytotoxicity (CC), run with H3N2 Perth/16/2009
[24] = CC50, run with Influenza A H1N1 A/Solomon Is./3/2006-M, Neutral Red
[25] = CC50, run with Influenza A H1N1 A/Solomon Is./3/2006-M, Visual
[26] = CC50, run with Influenza A H1N1 California/07/20/09 (so in the source), later run, Neutral Red
[27] = CC50, run with Influenza A H1N1 California/07/20/09 (so in the source), Visual/Neutral Red
[28] = CC50, run with Influenza A H1N1 California/07/2009, Neutral Red
[29] = CC50, run with Influenza A H3N2 Perth/16/2006 (so in the source), Neutral Red
[30] = CC50, run with Influenza A H3N2 Perth/16/2006 (so in the source), Visual
[31] = CC50, run with Influenza A H3N2 Perth/16/2009, last run, Neutral Red
[32] = CC50, run with Influenza A H3N2 Perth/16/2009, Visual/Neutral Red
[33] = Influenza A H1N1 California/07/2009, Drug Assay Visual, read-out: EC50
[34] = CC50, run with Influenza A H1N1 California/07/2009, Visual

Compound | EC50 [1] [µM] | EC50 [2] [µM] | EC50 [3, 11] [µM] | EC50 [4] [µM] | EC50 [5, 12] [µM] | EC50 [7, 13] [µM] | EC50 [7, 14] [µM] | EC90 [7, 15] [µM] | EC50 [7, 16] [µM] | EC50 [8, 17] [µM] | EC50 [8, 18] [µM] | EC50 [8, 19] [µM] | EC90 ([8]; Influenza A H3N2 Perth/16/2009) [µM] | EC50 [9, 20] [µM] | EC50 [9, 21] [µM] | CC50 ([10]; CC50) [µM] | CC50 [10, 22] [µM] | CC50 [10, 23] [µM] | CC50 [10, 24] [µM] | CC50 [10, 25] [µM] | also measured
CCCC[C@H](NC(C)=O)C(=O)N[C@@H](CC(=O)O)C(=O)N[C@H](C(=O)N[C@@H](CC(N)=O)C(=O)N[C@]1(C)CCCCCCC=CCCC[C@@](C)(C(=O)N[C@@H](C)C(=O)N[C@@H](C)C(=O)N[C@@H](CCC(N)=O)C(N)=O)NC(=O)[C@H](C)NC(=O)[C@H](CC(C)C)NC(=O)[C@H](Cc2ccccc2)NC(=O)[C@H](CC(C)C)NC(=O)[C@H](CC(C)C)NC(=O)[C@H]([C@@H](C)O)NC1=O)C(C)C [SP-18] (Ac-[Nle]DVN[R8]TLLFLA[S5]AAQ-NH2; staple 5-12) | > 50 | > 50 | 1.5 to 10 | 29 | 13 | 1.5 to 10 | 7 | 4 | 3.8 | 25 to 50 | 22 | > 100 | > 100 | 25 to 50 | 14 | > 50 | > 100 | > 100 | > 100 | > 100 | EC50 [5]: > 50 µM; EC90 ([6]; Influenza A H1N1 California/07/2009): 6.4 µM; EC90 ([6]; Influenza A H3N2 Perth/16/2009): > 100 µM; EC50 ([8]; Influenza A H3N2 Perth/16/2009, Neutral Red, read-out: EC50): 33 µM; CC50 ([10]; CC50, MDCK cells, run with Influenza A H1N1 California/07/2009, Neutral Red): > 100 µM; CC50 ([10]; CC50, MDCK cells, run with Influenza A H1N1 California/07/2009, VYR/Neutral Red): > 100 µM; CC50 ([10]; CC50, MDCK cells, run with Influenza A H1N1 California/07/2009, Visual): > 100 µM; CC50 ([10]; CC50, MDCK cells, run with Influenza A H3N2 Perth/16/2009, Neutral Red): > 100 µM; CC50 ([10]; CC50, MDCK cells, run with Influenza A H3N2 Perth/16/2009, VYR/Neutral Red): > 100 µM; CC50 [10, 26]: > 100 µM; CC50 [10, 27]: > 100 µM; CC50 [10, 28]: > 100 µM; CC50 [10, 29]: > 100 µM; CC50 [10, 30]: > 100 µM; CC50 [10, 31]: > 100 µM; CC50 [10, 32]: > 100 µM
CCCC[C@H](NC(C)=O)C(=O)N[C@@H](CC(=O)O)C(=O)N[C@H](C(=O)N[C@@H](CC(N)=O)C(=O)N[C@@]1(C)CCCC=CCCC[C@@](C)(C(=O)N[C@@H](CC(C)C)C(=O)N[C@@H](C)C(=O)N[C@H](C(=O)N[C@@H](CCC(N)=O)C(=O)NC(C)(C)C(=O)N[C@@H](C)C(=O)N[C@@H](C)C(=O)N[C@@H](C)C(N)=O)C(C)C)NC(=O)[C@H](CC(C)C)NC(=O)[C@H](CC(C)C)NC(=O)[C@H]([C@@H](C)O)NC1=O)C(C)C [SP-21] (Ac-[Nle]DVN[S5]TLL[S5]LAVQ[Aib]AAA-NH2; staple 5-9) | 17 | 39 | < 1.5 | 5.3 | 4.8 | 1.5 to 10 | 21 | 9.6 | 4.6 | 1.5 to 10 | 2.1 | 4.8 | 8 | < 1.5 | 0.54 | > 50 | > 100 | > 100 | > 100 | > 100 | EC50 [3, 33]: 1.3 µM; CC50 [10, 26]: > 100 µM; CC50 [10, 27]: > 100 µM; CC50 [10, 28]: > 100 µM; CC50 [10, 34]: > 100 µM; CC50 [10, 29]: > 100 µM; CC50 [10, 30]: > 100 µM; CC50 [10, 31]: > 100 µM; CC50 [10, 32]: > 100 µM
CCCC[C@H](NC(C)=O)C(=O)N[C@@H](CC(=O)O)C(=O)N[C@H](C(=O)N[C@@H](CC(N)=O)C(=O)N[C@]1(C)CCCCCCC=CCCC[C@@](C)(C(=O)N[C@@H](C)C(=O)N[C@@H](C)C(=O)N[C@@H](C)C(=O)N[C@@H](C)C(=O)N[C@@H](C)C(N)=O)NC(=O)[C@H](C)NC(=O)[C@H](CC(C)C)NC(=O)[C@H](Cc2ccccc2)NC(=O)[C@H](CC(C)C)NC(=O)[C@H](CC(C)C)NC(=O)[C@H]([C@@H](C)O)NC1=O)C(C)C [SP-25] (Ac-[Nle]DVN[R8]TLLFLA[S5]AAAAA-NH2; staple 5-12) | 33 | > 50 | < 1.5 | 6.5 | 3.6 | < 1.5 | 6.6 | 8.2 | 1.1 | < 1.5 | 0.43 | 49 | 49 | < 1.5 | 0.34 | > 50 | > 100 | > 100 | > 100 | > 100 | EC50 [3, 33]: 0.57 µM; CC50 [10, 26]: > 100 µM; CC50 [10, 27]: > 100 µM; CC50 [10, 28]: > 100 µM; CC50 [10, 34]: > 100 µM; CC50 [10, 29]: > 100 µM; CC50 [10, 30]: > 100 µM; CC50 [10, 31]: > 100 µM; CC50 [10, 32]: > 100 µM
